# Test results taken from patent publication EP2982745A1, “Method for expanding immune cells” (Johann Wolfgang Goethe-Universität, Frankfurt am Main, priority 2014, dated 2016).
# Legend:
# [1] = test system: Primary NK cells; assay: NK cell subset distribution during expansion (flow cytometry); type: cell-based, human; details: IL-2/-15/SPV-106 at 5µM; 3, 6 and 10 days; n = 3; figure 3
# Description: (§1) NKL cell line was grown in Iscove's Modified Dulbecco's Medium (IMDM-Lonza) supplemented with 20% fetal bovine serum and recombinant human interleukine 2 (IL-2, 100 U/ml). Proliferation assay was performed by culturing 2x10^5 NKL cells/ml (96 multiwell; Nunc Thermo Scientific) in 200 µl growth medium supplemented with IL-2 (100 U/ml); IL-2/-15 (10 ng/ml); or IL-2/-15/SPV-106 5µM. Cells were counted and culture medium was changed every three days. Primary NK cells were isolated from peripheral blood of healthy donors using different methods of NK cell isolation (such as Easy Sep Human NK Cell Enrichment Kit, Stem cell Technologies or Human NK Cell Negative Selection Kit, Miltenyi). Proliferation assay was performed by culturing 2x10^6 primary NK cells/ml (24 multiwell ) in 1 ml growth medium supplemented with IL-2 (100 U/ml)/IL-15 (10 ng/ml); or IL-2/-15/SPV-106 5µM. Cells were counted and culture medium was changed every three days. Average of relative cell counts was determined microscopically using Trypan blue staining to exclude death or damaged cells.
# Primary NK cells were cultured in growth medium for 10 days in presence of IL-2/-15, IL 2/-15, or IL-2/-15/ SPV-106 (at 5µM). At 3, 6 and 10 the NK cell subset distribution (CD56^high : CD56^dim) was analysed by flow cytometry. Average of the NK cell subset ratio is shown in the graph of figure 3 (n = 3 at each time point).
# [2] = test system: K562 target cells; assay: Europium release cytotoxicity assay of expanded NK cells; type: cell-based, human; details: NK cells expanded by cytokines and 5µM SPV-106; E/T ratios 2.5:1, 5:1, 10:1; 4 h; figure 4
# Description: Effector cells were generated prepared as described above. As target cells, K562, a human chronic myelogenous leukemia cell line, […], were maintained in culture in RPMI 1640 medium supplemented with 10% fetal bovine serum. The medium was changed three times a week, and the cells were in the log phase of growth when used as targets in cytotoxicity assays. About 5 x10^6 target cells were washed in saline to reduce extracellular Ca^+2 content. The cell pellet was resuspended in 1 ml of labeling buffer supplemented with […] Eu(DH3C00)^3+, 100 mM DTPA, and 0.5 mg of dextran sulfate. This cell suspension was incubated for 20 min at room temperature with occasional shaking. The labeling process was stopped by the addition of […] of 100 mM CaCl2 solution per ml. After 5 min of continued incubation, the cells were washed three times in 30 ml of repair buffer and then one to two times in 10 ml of medium and were finally resuspended in CM at a concentration of 5 x 10^4 cells/ml. […] The percentage of specific cytotoxicity was calculated as follows: ((experimental release (counts)-spontaneous release (counts)) : (maximal release (counts)-spontaneous release (counts)) x 100.
# Killing activity of K562 target cells was assessed by Europium Assay as described in the following Material and Methods section.
# [3] = test system: Primary NK cells; assay: Proliferation assay of primary NK cells (relative cell counts, Trypan blue); type: cell-based, human; details: IL-2/-15/SPV-106 at 5 µM; after 10 days of culture; n = 3; figure 2
# Description: as §1
# Primary NK cells isolated from peripheral blood were cultured in growth medium for 10 days in presence of IL-2/-15, or IL-2/-15/SPV-106 (5µM). At 3, 6 and 10 days cells were counted. Average of relative cell counts in comparison of 100% at day 0 is shown in the graph of figure 2 (n = 3 at each time point).
# [4] = test system: NKL cell line; assay: Proliferation assay of NKL cell line (cell counts); type: cell-based; details: IL-2/-15/SPV-106 (5µM); already after 3 days of culture; counted at 3, 6 and 10 days; n = 7; figure 1
# Description: as §1
# NKL cells were cultured in growth medium for 10 days in presence of IL-2, IL-2/-15, or IL-2/-15/SPV-106 (5µM). SPV-106 is the selective activator of histone acetylase PCAF. At 3, 6 and 10 days cells were counted. Average cell number (x 10^4) is shown in the graph of figure 1 (n = 7 at each time point). […]
structure (smiles),measurement,setting,value
CCCCCCCCCCCCCCC=C(C(=O)OCC)C(=O)OCC [SPV-106],NK cell subset distribution (CD56^high : CD56^dim),[1],did not change the naturally occurring NK subset distribution
same,cytotoxic capacity (killing activity of K562 target cells),[2],retained cytotoxic capacity
same,primary NK cell proliferation (average of relative cell counts in comparison of 100% at day 0),[3],enhances primary NK cell proliferation
same,NKL cell line proliferation (average cell number),[4],enhances NKL cell line proliferation
